target: full-length ATR (Homo sapiens (Human), UniProt Q13535); assay: ATR Inhibition Assay (radioactive-phosphate incorporation); assay type: biochemical; details: read-out: ATR Ki
Method in brief: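 Ki(app) was derived by non-linear regression of background-corrected initial rates of 33P incorporation into an 800 μM target peptide, read by phosphocellulose filter scintillation counting. Reaction conditions: 5 nM full-length ATR, 10 μM [γ-33P]ATP, pH 7.5 Tris buffer with MgCl2 and DTT, 25 °C, 10-min preincubation, 24 h run.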

Chain of full-length ATR (Q13535 whole entry): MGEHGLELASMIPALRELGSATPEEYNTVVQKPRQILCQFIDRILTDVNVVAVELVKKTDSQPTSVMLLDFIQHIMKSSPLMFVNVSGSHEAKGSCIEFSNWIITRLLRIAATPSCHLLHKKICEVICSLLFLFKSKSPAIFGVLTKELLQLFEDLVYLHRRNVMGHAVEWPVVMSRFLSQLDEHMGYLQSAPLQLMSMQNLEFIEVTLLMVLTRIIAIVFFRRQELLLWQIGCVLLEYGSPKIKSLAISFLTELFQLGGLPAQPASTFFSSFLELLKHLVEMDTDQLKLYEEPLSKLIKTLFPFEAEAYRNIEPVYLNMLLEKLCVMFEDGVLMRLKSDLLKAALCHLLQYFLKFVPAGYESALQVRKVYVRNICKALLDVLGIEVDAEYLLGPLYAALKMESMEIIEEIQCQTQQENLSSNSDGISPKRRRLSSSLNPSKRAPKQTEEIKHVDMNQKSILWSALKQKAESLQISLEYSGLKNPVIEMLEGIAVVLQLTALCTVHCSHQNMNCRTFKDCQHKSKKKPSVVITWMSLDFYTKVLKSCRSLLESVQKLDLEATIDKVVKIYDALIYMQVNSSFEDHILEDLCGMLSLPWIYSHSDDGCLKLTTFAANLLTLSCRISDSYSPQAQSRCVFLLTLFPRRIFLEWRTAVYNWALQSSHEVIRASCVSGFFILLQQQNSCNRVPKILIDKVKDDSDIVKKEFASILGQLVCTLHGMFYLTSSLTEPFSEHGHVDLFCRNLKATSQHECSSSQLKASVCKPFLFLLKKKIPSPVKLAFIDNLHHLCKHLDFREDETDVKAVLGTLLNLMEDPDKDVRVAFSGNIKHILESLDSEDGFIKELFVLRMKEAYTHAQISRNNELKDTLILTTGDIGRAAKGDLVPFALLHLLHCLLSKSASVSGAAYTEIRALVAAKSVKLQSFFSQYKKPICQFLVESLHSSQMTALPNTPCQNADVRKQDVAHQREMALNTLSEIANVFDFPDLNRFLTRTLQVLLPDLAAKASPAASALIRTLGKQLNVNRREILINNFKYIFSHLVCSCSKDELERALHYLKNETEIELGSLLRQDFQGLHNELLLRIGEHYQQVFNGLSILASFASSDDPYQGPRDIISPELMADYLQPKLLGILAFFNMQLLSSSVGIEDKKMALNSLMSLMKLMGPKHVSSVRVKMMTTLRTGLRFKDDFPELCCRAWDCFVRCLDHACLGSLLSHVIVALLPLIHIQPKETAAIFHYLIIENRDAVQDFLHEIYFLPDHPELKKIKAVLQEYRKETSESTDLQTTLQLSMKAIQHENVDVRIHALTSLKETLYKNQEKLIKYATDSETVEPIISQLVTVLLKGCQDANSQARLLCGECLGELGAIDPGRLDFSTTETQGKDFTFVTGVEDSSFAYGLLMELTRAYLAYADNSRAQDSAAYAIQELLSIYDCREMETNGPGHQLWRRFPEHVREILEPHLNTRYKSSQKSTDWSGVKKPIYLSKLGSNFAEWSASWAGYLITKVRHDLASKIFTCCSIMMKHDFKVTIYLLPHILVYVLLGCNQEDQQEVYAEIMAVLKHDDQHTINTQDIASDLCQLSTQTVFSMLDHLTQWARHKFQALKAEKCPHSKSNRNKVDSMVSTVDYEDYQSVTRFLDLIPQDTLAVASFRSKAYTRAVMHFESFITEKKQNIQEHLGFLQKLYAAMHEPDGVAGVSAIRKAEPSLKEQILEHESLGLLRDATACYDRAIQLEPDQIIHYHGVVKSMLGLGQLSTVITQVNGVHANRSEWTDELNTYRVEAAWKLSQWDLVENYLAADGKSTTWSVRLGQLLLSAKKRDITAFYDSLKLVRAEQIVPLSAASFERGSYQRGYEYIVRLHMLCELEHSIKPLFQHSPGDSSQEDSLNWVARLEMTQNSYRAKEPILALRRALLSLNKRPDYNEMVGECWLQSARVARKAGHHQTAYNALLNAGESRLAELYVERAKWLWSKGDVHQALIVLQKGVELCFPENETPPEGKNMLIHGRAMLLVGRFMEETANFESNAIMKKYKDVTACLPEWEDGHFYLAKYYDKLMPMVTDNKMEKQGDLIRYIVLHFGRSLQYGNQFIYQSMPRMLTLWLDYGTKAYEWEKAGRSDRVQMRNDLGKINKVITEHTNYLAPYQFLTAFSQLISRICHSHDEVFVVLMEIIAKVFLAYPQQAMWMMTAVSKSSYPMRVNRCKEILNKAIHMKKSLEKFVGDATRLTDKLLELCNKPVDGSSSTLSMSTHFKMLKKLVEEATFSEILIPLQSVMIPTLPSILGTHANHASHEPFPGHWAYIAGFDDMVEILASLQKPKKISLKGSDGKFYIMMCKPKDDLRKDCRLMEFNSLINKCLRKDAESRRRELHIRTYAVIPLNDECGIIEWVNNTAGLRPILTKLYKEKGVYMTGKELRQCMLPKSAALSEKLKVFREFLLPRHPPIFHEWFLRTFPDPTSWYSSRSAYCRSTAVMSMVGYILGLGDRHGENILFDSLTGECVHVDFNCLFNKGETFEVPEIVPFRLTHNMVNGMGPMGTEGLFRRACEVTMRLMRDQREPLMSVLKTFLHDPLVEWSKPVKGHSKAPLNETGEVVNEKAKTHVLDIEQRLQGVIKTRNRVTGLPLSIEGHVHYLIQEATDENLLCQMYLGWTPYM

Structure (SMILES) | Ki [nM]
CCCCOC(=O)c1nnc(-c2nc(-c3ccc(S(=O)(=O)C(C)C)cc3)cnc2N)o1 [IA-113, butyl 5-[3-amino-6-(4-isopropylsulfonylphenyl)pyrazin-2-yl]-1,3,4-oxadiazole-2-carboxylate] | 10 to 100
CC(C)S(=O)(=O)c1ccc(-c2cnc(N)c(-c3nnc(C(=O)NC4CCNC4)o3)n2)cc1 (stereo not shown) [IA-114, 5-[3-amino-6-(4-isopropylsulfonylphenyl)pyrazin-2-yl]-N-pyrrolidin-3-yl-1,3,4-oxadiazole-2-carboxamide] | 100 to 5000
CN(C)C(=O)c1ccc(-c2cnc(N)c(-c3nnc(-c4ccco4)o3)n2)cc1 [IA-115, 4-[5-amino-6-[5-(2-furyl)-1,3,4-oxadiazol-2-yl]pyrazin-2-yl]-N,N-dimethyl-benzamide] | 10 to 100
CC(C)S(=O)(=O)c1ccc(-c2cnc(N)c(-c3nnc(-c4ccccc4)o3)n2)cc1 [IA-116, 5-(4-isopropylsulfonylphenyl)-3-(5-phenyl-1,3,4-oxadiazol-2-yl)pyrazin-2-amine] | ≤ 10
COc1ccc(-c2cnc(N)c(-c3nnc(-c4ccccc4)o3)n2)cn1 [IA-117, 5-(6-methoxy-3-pyridyl)-3-(5-phenyl-1,3,4-oxadiazol-2-yl)pyrazin-2-amine] | 100 to 5000
CN(C)Cc1ccccc1-c1cnc(N)c(-c2nnc(-c3ccccc3)o2)n1 [IA-118, 5-(2-((dimethylamino)methyl)phenyl)-3-(5-phenyl-1,3,4-oxadiazol-2-yl)pyrazin-2-amine] | 100 to 5000
COCCNCc1ccc(-c2nnc(-c3nc(-c4ccc(S(=O)(=O)C(C)C)cc4)cnc3N)o2)cc1 [IA-119, 5-(4-isopropylsulfonylphenyl)-3-[5-[4-[(2-methoxyethylamino)methyl]phenyl]-1,3,4-oxadiazol-2-yl]pyrazin-2-amine] | ≤ 10
CC(C)S(=O)(=O)c1ccc(-c2cnc(N)c(-c3nnc(C(=O)N4CC(N)C4)o3)n2)cc1 [IA-120, (3-aminoazetidin-1-yl)-[5-[3-amino-6-(4-isopropylsulfonylphenyl)pyrazin-2-yl]-1,3,4-oxadiazol-2-yl]methanone] | 10 to 100
CC(C)S(=O)(=O)c1ccccc1-c1cnc(N)c(-c2nnc(-c3ccccc3)o2)n1 [IA-121, 5-(2-isopropylsulfonylphenyl)-3-(5-phenyl-1,3,4-oxadiazol-2-yl)pyrazin-2-amine] | 100 to 5000
CCNCc1ccc(-c2nnc(-c3nc(-c4ccc(S(=O)(=O)C(C)C)cc4)cnc3N)o2)cc1 [IA-122, 3-[5-[4-(ethylaminomethyl)phenyl]-1,3,4-oxadiazol-2-yl]-5-(4-isopropylsulfonylphenyl)pyrazin-2-amine] | ≤ 10
CC(C)S(=O)(=O)c1ccc(-c2cnc(N)c(-c3nnc(-c4cccc([C@H](C)N)c4)o3)n2)cc1 [IA-123, 3-[5-[3-[(1S)-1-aminoethyl]phenyl]-1,3,4-oxadiazol-2-yl]-5-(4-isopropylsulfonylphenyl)pyrazin-2-amine] | ≤ 10
CC(C)S(=O)(=O)c1ccc(-c2cnc(N)c(-c3nnc(-c4ccc([C@@H](C)N)cc4)o3)n2)cc1 [IA-124, 3-[5-[4-[(1R)-1-aminoethyl]phenyl]-1,3,4-oxadiazol-2-yl]-5-(4-isopropylsulfonylphenyl)pyrazin-2-amine] | ≤ 10

Next, values leading:

Ki [nM] | Structure (SMILES)
100 to 5000 | COCc1ccccc1-c1cnc(N)c(-c2nnc(-c3ccccc3)o2)n1 [IA-125, 5-[2-(methoxymethyl)phenyl]-3-(5-phenyl-1,3,4-oxadiazol-2-yl)pyrazin-2-amine]
≤ 10 | CN(C)C(=O)c1ccc(-c2cnc(N)c(-c3nnc(-c4ccccc4)o3)n2)c(C(F)F)c1 [IA-126, 4-[5-amino-6-(5-phenyl-1,3,4-oxadiazol-2-yl)pyrazin-2-yl]-3-(difluoromethyl)-N,N-dimethyl-benzamide]
10 to 100 | CN(C)C(=O)c1ccc(-c2cnc(N)c(-c3nnc(-c4ccccc4-c4ccsc4)o3)n2)cc1 [IA-127, 4-[5-amino-6-[5-[2-(3-thienyl)phenyl]-1,3,4-oxadiazol-2-yl]pyrazin-2-yl]-N,N-dimethyl-benzamide]
≤ 10 | CC(C)S(=O)(=O)c1ccc(-c2cnc(N)c(-c3nnc(C(=O)O)o3)n2)cc1 [IA-128, 5-[3-amino-6-(4-isopropylsulfonylphenyl)pyrazin-2-yl]-1,3,4-oxadiazole-2-carboxylic acid]
10 to 100 | C[C@H](Nc1nnc(-c2nc(-c3ccc(C(=O)N(C)C)cc3)cnc2N)o1)c1ccc(Cl)cc1 [IA-129, 4-[5-amino-6-[5-[[(1 S)-1-(4-chlorophenyl)ethyl]amino]-1,3,4-oxadiazol-2-yl]pyrazin-2-yl]-N,N-dimethyl-benzamide]
≤ 10 | CNCc1ccc(-c2nnc(-c3nc(-c4ccc(S(=O)(=O)C(C)C)cc4)cnc3N)o2)c(F)c1 [IA-130, 3-[5-[2-fluoro-4-(methylaminomethyl)phenyl]-1,3,4-oxadiazol-2-yl]-5-(4-isopropylsulfonylphenyl)pyrazin-2-amine]
10 to 100 | CC(=O)OCc1ccc(-c2nnc(-c3nc(-c4ccc(C(=O)N(C)C)cc4)cnc3N)o2)cc1 [IA-131, [4-[5-[3-amino-6-[4-(dimethylcarbamoyl)phenyl]pyrazin-2-yl]-1,3,4-oxadiazol-2-yl]phenyl]methyl acetate]
≤ 10 | CC(C)S(=O)(=O)c1ccc(-c2cnc(N)c(-c3nnc(-c4ccccc4)o3)n2)c(C#N)c1 [IA-132, 2-[5-amino-6-(5-phenyl-1,3,4-oxadiazol-2-yl)pyrazin-2-yl]-5-isopropylsulfonyl-benzonitrile]
100 to 5000 | CC(C)S(=O)(=O)c1ccc(-c2cnc(N)c(-c3nnc(C(=O)N4CCC(N)C4)o3)n2)cc1 (stereo not shown) [IA-133, [5-[3-amino-6-(4-isopropylsulfonylphenyl)pyrazin-2-yl]-1,3,4-oxadiazol-2-yl]-(3-aminopyrrolidin-1-yl)methanone]
100 to 5000 | Nc1ncc(-c2ccccc2-c2ccccc2)nc1-c1nnc(-c2ccccc2)o1 [IA-134, 3-(5-phenyl-1,3,4-oxadiazol-2-yl)-5-(2-phenylphenyl)pyrazin-2-amine]
≤ 10 | CN(C)C(=O)c1ccc(-c2cnc(N)c(-c3nnc(-c4cccn4C)o3)n2)cc1 [IA-135, 4-[5-amino-6-[5-(1-methylpyrrol-2-yl)-1,3,4-oxadiazol-2-yl]pyrazin-2-yl]-N,N-dimethyl-benzamide]
10 to 100 | CC(C)[S+]([O-])c1ccccc1-c1cnc(N)c(-c2nnc(-c3ccccc3)o2)n1 (stereo not shown) [IA-136, 5-(2-(isopropylsulfinyl)phenyl)-3-(5-phenyl-1,3,4-oxadiazol-2-yl)pyrazin-2-amine]
10 to 100 | Nc1ncc(-c2ccccc2CCO)nc1-c1nnc(-c2ccccc2)o1 [IA-137, 2-[2-[5-amino-6-(5-phenyl-1,3,4-oxadiazol-2-yl)pyrazin-2-yl]phenyl]ethanol]
10 to 100 | CC(C)S(=O)(=O)c1ccc(-c2cnc(N)c(-c3nnc(N4CCC(CN)CC4)o3)n2)cc1 [IA-138, 3-[5-[4-(aminomethyl)-1-piperidyl]-1,3,4-oxadiazol-2-yl]-5-(4-isopropylsulfonylphenyl)pyrazin-2-amine]
≤ 10 | CNCc1ccc(-c2nnc(-c3nc(-c4ccc(S(=O)(=O)C(C)C)cc4)cnc3N)o2)s1 [IA-140, 5-(4-isopropylsulfonylphenyl)-3-[5-[5-(methylaminomethyl)-2-thienyl]-1,3,4-oxadiazol-2-yl]pyrazin-2-amine]
≤ 10 | Nc1ncc(-c2ccncc2)nc1-c1nnc(-c2cccs2)o1 [IA-141, 5-(4-pyridyl)-3-[5-(2-thienyl)-1,3,4-oxadiazol-2-yl]pyrazin-2-amine]

From US10479784B2, “Substituted pyrazin-2-amines as inhibitors of ATR kinase” (Vertex Pharmaceuticals Incorporated, priority 2008, dated 2019)
